Measured values as given in patent publication US20250114460A1, “NOVEL PLK1 DEGRADATION INDUCING COMPOUND” (UPPTHERA, INC., priority 2021, published 2025).

Target: T1, PLK1 (Homo sapiens, UniProt P53350)
T1 construct: endogenous in cells; host or cells: HeLa LgBit (Plk1-HiBit KI): HeLa stably expressing LgBit, with a CRISPR/Cas9 knock-in of HiBit at the endogenous PLK1 locus
Assay: Luciferase assay for PLK1 in HeLa LgBit (Plk1-HiBit KI) cell line
Assay type: cell-based
Conditions: 300 nM compound, luminescence after 9 hours
In short: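 HeLa cells stably expressing LgBit, with HiBit knocked in at the C-terminus of endogenous Plk1, released from a 24 h 2 mM thymidine block and grown 18 h. Endurazine added, then compound at 300 nM; luminescence tracked in real time, expressed as ratio to DMSO.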

T1 sequence (P53350 whole entry): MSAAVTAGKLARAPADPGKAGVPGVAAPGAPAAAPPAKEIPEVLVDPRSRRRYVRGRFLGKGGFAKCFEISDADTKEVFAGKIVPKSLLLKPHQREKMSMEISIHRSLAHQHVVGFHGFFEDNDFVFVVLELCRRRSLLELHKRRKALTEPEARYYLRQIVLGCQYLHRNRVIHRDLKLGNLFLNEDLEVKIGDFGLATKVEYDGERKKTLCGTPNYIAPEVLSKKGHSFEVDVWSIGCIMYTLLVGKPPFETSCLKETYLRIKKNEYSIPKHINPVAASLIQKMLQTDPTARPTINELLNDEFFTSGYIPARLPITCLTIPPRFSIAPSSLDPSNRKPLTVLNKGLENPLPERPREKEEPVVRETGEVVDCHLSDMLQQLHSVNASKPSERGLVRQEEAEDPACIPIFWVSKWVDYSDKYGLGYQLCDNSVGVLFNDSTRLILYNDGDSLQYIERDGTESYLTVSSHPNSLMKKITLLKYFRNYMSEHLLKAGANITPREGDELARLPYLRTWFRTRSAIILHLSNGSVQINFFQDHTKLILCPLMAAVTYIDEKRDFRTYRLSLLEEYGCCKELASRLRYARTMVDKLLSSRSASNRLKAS

Row | Structure (SMILES) | Activity: ratio of the luminescense value of each Exemplary Compound treatment group to DMSO treatment group
1 | COc1cc(C(=O)NC2CCN(C(=O)CCCCN3CCN(c4cccc5c4C(=O)N(C4CCC(=O)NC4=O)C5=O)CC3)CC2)ccc1Nc1ncc2c(n1)N(C1CCCC1)CC(F)(F)C(=O)N2C (stereo not shown) [Compound 65, 4-((9-cyclopentyl-7,7-difluoro-5-methyl-6-oxo-6,7,8,9-tetrahydro-5H-pyrimido[4,5-b][1,4]diazepin-2-yl)amino)-N-(1-(5-(4-(2-(2,6-dioxopiperidin-3-yl)-1,3-dioxoisoindolin-4-yl)piperazin-1-yl)pentanoyl)piperidin-4-yl)-3-methoxybenzamide] | ++ (++<0.6)
2 | COc1cc(C(=O)NC2CCN(C(=O)CCCNc3ccc4c(c3)C(=O)N(C3CCC(=O)NC3=O)C4=O)CC2)c(F)cc1Nc1ncc2c(n1)N(C1CCCC1)CC(F)(F)C(=O)N2C (stereo not shown) [Compound 35, 4-((9-cyclopentyl-7,7-difluoro-5-methyl-6-oxo-6,7,8,9-tetrahydro-5H-pyrimido[4,5-b][1,4]diazepin-2-yl)amino)-N-(1-(4-((2-(2,6-dioxopiperidin-3-yl)-1,3-dioxoisoindolin-5-yl)amino)butanoyl)piperidin-4-yl)-2-fluoro-5-methoxybenzamide] | + (+<0.7)
3 | CN1C(=O)C(F)(F)CN(C2CCCC2)c2nc(Nc3ccc(C(=O)NC4CCN(C(=O)CCN5CCN(c6cccc7c6C(=O)N(C6CCC(=O)NC6=O)C7=O)CC5)CC4)cc3OCCO)ncc21 (stereo not shown) [Compound 73, 4-((9-cyclopentyl-7,7-difluoro-5-methyl-6-oxo-6,7,8,9-tetrahydro-5H-pyrimido[4,5-b][1,4]diazepin-2-yl)amino)-N-(1-(3-(4-(2-(2,6-dioxopiperidin-3-yl)-1,3-dioxoisoindolin-4-yl)piperazin-1-yl)propanoyl)piperidin-4-yl)-3-(2-hydroxyethoxy)benzamide] | ++ (++<0.6)
4 | COc1cc(C(=O)NC2CCN(C[C@@H]3CCN(c4cccc5c4C(=O)N(C4CCC(=O)NC4=O)C5=O)C3)CC2)ccc1Nc1ncc2c(n1)N(C1CCCC1)CC(F)(F)C(=O)N2C (stereo partly drawn) [Compound 47, 4-((9-cyclopentyl-7,7-difluoro-5-methyl-6-oxo-6,7,8,9-tetrahydro-5H-pyrimido[4,5-b][1,4]diazepin-2-yl)amino)-N-(1-(((3S)-1-(2-(2,6-dioxopiperidin-3-yl)-1,3-dioxoisoindolin-4-yl)pyrrolidin-3-yl)methyl)piperidin-4-yl)-3-methoxybenzamide] | ++ (++<0.6)

Other lines, results leading:

Row | Activity: ratio of the luminescense value of each Exemplary Compound treatment group to DMSO treatment group | Structure (SMILES)
5 | + (+<0.7) | C=C[C@]1(F)CN(C2CCCC2)c2nc(Nc3ccc(C(=O)NC4CCN(C(=O)CCN5CCN(c6cccc7c6C(=O)N(C6CCC(=O)NC6=O)C7=O)CC5)CC4)cc3OC)ncc2N(C)C1=O (single isomer, unassigned) [Compound 109]
6 | ++ (++<0.6) | COc1cc(C(=O)N2CCN(CCCN3CCN(c4cccc5c4C(=O)N(C4CCC(=O)NC4=O)C5=O)CC3)CC2)ccc1Nc1ncc2c(n1)N(C1CCCC1)CC(F)(F)C(=O)N2C (stereo not shown) [Compound 87, 4-(4-(3-(4-(4-((9-cyclopentyl-7,7-difluoro-5-methyl-6-oxo-6,7,8,9-tetrahydro-5H-pyrimido[4,5-b][1,4]diazepin-2-yl)amino)-3-methoxybenzoyl)piperazin-1-yl)propyl)piperazin-1-yl)-2-(2,6-dioxopiperidin-3-yl)isoindoline-1,3-dione]
7 | + (+<0.7) | COc1cc(C(=O)NC2CCN(C(=O)[C@@H]3C[C@H](Nc4cccc5c4C(=O)N(C4CCC(=O)NC4=O)C5=O)CN3)CC2)c(F)cc1Nc1ncc2c(n1)N(C1CCCC1)CC(F)(F)C(=O)N2C (stereo partly drawn) [Compound 206, 4-((9-cyclopentyl-7,7-difluoro-5-methyl-6-oxo-6,7,8,9-tetrahydro-5H-pyrimido[4,5-b][1,4]diazepin-2-yl)amino)-N-(1-((2S,4S)-4-((2-(2,6-dioxopiperidin-3-yl)-1,3-dioxoisoindolin-4-yl)amino)pyrrolidine-2-carbonyl)piperidin-4-yl)-2-fluoro-5-methoxybenzamide]
